Test results from patent US10167299B2, “1-(3-aminopropyl) substituted cyclic amine compounds, preparation method therefor, and pharmaceutical compositions and uses thereof” (SHANGHAI INSTITUTE OF MATERIA MEDICA, CHINESE ACADEMY OF …, priority 2013, dated 2019).
Where two headings read alike, the source gives them in different places.

Molecular target: CCR5 (Homo sapiens (Human), UniProt P51681)
Test: Calcium flux inhibition experiment
Format: cell-based
Details: for calcium influx inhibition effect in words, versus positive control compounds: conclusion from Table 1
Source text: Experiment apparatus: FlexStation II
Experiment materials: HEK293/CCR5-Gα16 cell line, Fluo-4calcium dye (fluorescent-4 calcium ion dye) and FlexStation instrument.
Experiment theory: Activation of the receptor can cause the activation of Gα16 protein, thereby activating phospholipase C (PLC) to generate IP3 and DAG by establishing CCR5 and Ga16 co-transfected cell line. IP3 can bind to IP3 receptors on the endoplasmic reticulum and mitochondria in a cell, which can cause the release of intracellular calcium. Thus, determination of changes in intracellular calcium can be used as a method to detect CCR5 activation state. Fluo-4/AM is a fluorescent probe indicator for calcium used to measure calcium ion. As a non-polar lipid-soluble compound, after it enters into cells, AM group is dissociated to release Fluo-4 under the effect of cell lipolysis enzyme. Fluo-4 is a polar molecule and not easy to go through the lipid bilayer membrane, therefore it can stay within the cells for a long time. Ultimately, the level of activated Ga protein can be reflected by measuring the excited fluorescence intensity. If the screened compound can activate CCR5, it can greatly increase the calcium flux reaction; on the contrary, if the screened compound can antagonize CCR5, it can greatly reduce calcium flux reaction.
1. HEK293 cells which can stably express CCR5 were inoculated in a 96-well plate and incubated overnight.
2. The medium in each well into which cells were innoculated was removed and 40 μl/well of freshly prepared dye was added. The plate was placed in a 37° C. incubator and incubated for 40 minutes at constant temperature.
3. The medicament to be determined was diluted with calcium buffer to eight concentration gradients, which is 1×10^−4 M, 1×10^−5 M, 1×10^−6 M, 1×10^−7 M, 1×10^−8 M, 1×10^−9 M, 1×10^−10 M, and 1×10^−11 M, respectively, and homogeneously mixed.
4. The dye was removed. Freshly prepared calcium buffer was used to wash for one time, 50 μl of calcium buffer was added.
5. FlexStation II was used for detection. 25 μl of calcium buffer containing the medicament to be determined was added automatically from the 15th second.

[1] = HEK293/CCR5-Gα16 cell line, calcium flux, read-out: CCR5 IC50

Chain of CCR5 (P51681 whole entry): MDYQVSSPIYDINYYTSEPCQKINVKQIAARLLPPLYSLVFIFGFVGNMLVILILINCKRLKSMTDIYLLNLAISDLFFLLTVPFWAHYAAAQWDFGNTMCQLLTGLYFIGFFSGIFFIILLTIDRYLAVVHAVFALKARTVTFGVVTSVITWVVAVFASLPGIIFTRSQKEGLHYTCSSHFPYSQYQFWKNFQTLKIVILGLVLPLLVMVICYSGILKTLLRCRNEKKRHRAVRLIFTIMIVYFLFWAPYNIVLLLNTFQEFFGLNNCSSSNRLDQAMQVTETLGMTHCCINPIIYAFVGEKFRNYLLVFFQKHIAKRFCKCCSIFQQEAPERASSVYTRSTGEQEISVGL

SMILES	IC50 [1] [nM]	calcium influx inhibition effect in words, versus positive control compounds	IC50 [nM]
COc1ccc([C@H](CCN2C3CCC2CC(n2c(C)nnc2C(C)C)C3)NC(=O)C2CCN(S(C)(=O)=O)CC2)s1 (stereo partly drawn) [Compound 148, N-[(1S)-3-[exo-3-(3-isopropyl-5-methyl-4H-1,2,4-triazol-4-yl)-8-azabicyclo[3.2.1]octane-8-yl]-1-(5-methoxythiophen-2-yl)propyl]-1-methylsulfonylpiperidine-4-carboxamide]	3.42	better than the positive control compounds	–
Cc1nnc(C(C)C)n1C1CC2CCC(C1)N2CC[C@H](NC(=O)C1CCN(S(C)(=O)=O)CC1)c1ccc(C#N)s1 (stereo partly drawn) [Compound 149, N-[(1S)-3-[exo-3-(3-isopropyl-5-methyl-4H-1,2,4-triazol-4-yl)-8-azabicyclo[3.2.1]octane-8-yl]-1-(5-cyanothiophen-2-yl)propyl]-1-methylsulfonylpiperidine-4-carboxamide]	–	comparable to the positive control compounds	7.89
Cc1nnc(C(C)C)n1C1CC2CCC(C1)N2CC[C@H](NC(=O)C1CCN(S(C)(=O)=O)CC1)c1ccc(Cl)s1 (stereo partly drawn) [Compound 150, N-[(1S)-3-[exo-3-(3-isopropyl-5-methyl-4H-1,2,4-triazol-4-yl)-8-azabicyclo[3.2.1]octane-8-yl]-1-(5-chlorothiophen-2-yl)propyl]-1-methylsulfonylpiperidine-4-carboxamide]	2.22	better than the positive control compounds	–
Cc1nnc(C(C)C)n1C1CC2CCC(C1)N2CC[C@H](NC(=O)C1CCN(S(C)(=O)=O)CC1)c1ccc(F)s1 (stereo partly drawn) [Compound 151, N-[(1S)-3-[exo-3-(3-isopropyl-5-methyl-4H-1,2,4-triazol-4-yl)-8-azabicyclo[3.2.1]octane-8-yl]-1-(5-fluorothiophen-2-yl)propyl]-1-methylsulfonylpiperidine-4-carboxamide]	3.45	better than the positive control compounds	–
Cc1nnc(C(C)C)n1C1CC2CCC(C1)N2CC[C@H](NC(=O)Cn1ncnn1)c1cccs1 (stereo partly drawn) [Compound 152, N-[(1S)-3-[exo-3-(3-isopropyl-5-methyl-4H-1,2,4-triazol-4-yl)-8-azabicyclo[3.2.1]octane-8-yl]-1-(thiophen-2-yl)propyl]-2-(2H-tetrazol-2-yl)acetamide]	7.98	comparable to the positive control compounds	–
Cc1ccc([C@H](CCN2C3CCC2CC(n2c(C)nnc2C(C)C)C3)NC(=O)Cn2ncnn2)s1 (stereo partly drawn) [Compound 153, N-[(1S)-3-[exo-3-(3-isopropyl-5-methyl-4H-1,2,4-triazol-4-yl)-8-azabicyclo[3.2.1]octane-8-yl]-1-(5-methylthiophen-2-yl)propyl]-2-(2H-tetrazol-2-yl)acetamide]	13.4	–	–
COc1ccc([C@H](CCN2C3CCC2CC(n2c(C)nnc2C(C)C)C3)NC(=O)Cn2ncnn2)s1 (stereo partly shown) [Compound 154]	–	–	23.1
Cc1nnc(C(C)C)n1C1CC2CCC(C1)N2CC[C@H](NC(=O)Cn1ncnn1)c1ccc(C#N)s1 (stereo partly drawn) [Compound 155, N-[(1S)-3-[exo-3-(3-isopropyl-5-methyl-4H-1,2,4-triazol-4-yl)-8-azabicyclo[3.2.1]octane-8-yl]-1-(5-cyanothiophen-2-yl)propyl]-2-(2H-tetrazol-2-yl)acetamide]	–	comparable to the positive control compounds	8.23
Cc1nnc(C(C)C)n1C1CC2CCC(C1)N2CC[C@H](NC(=O)Cn1ncnn1)c1ccc(Cl)s1 (stereo partly drawn) [Compound 156, N-[(1S)-3-[exo-3-(3-isopropyl-5-methyl-4H-1,2,4-triazol-4-yl)-8-azabicyclo[3.2.1]octane-8-yl]-1-(5-chlorothiophen-2-yl)propyl]-2-(2H-tetrazol-2-yl)acetamide]	9.85	comparable to the positive control compounds	–
Cc1nnc(C(C)C)n1C1CC2CCC(C1)N2CC[C@H](NC(=O)Cn1ncnn1)c1ccc(F)s1 (stereo partly drawn) [Compound 157, N-[(1S)-3-[exo-3-(3-isopropyl-5-methyl-4H-1,2,4-triazol-4-yl)-8-azabicyclo[3.2.1]octane-8-yl]-1-(5-fluorothiophen-2-yl)propyl]-2-(2H-tetrazol-2-yl)acetamide]	1.23	better than the positive control compounds	–
Cc1nnc(C(C)C)n1C1CC2CCC(C1)N2CC[C@H](NC(=O)Cc1nnn[nH]1)c1cccs1 (stereo partly drawn) [Compound 158, N-[(1S)-3-[exo-3-(3-isopropyl-5-methyl-4H-1,2,4-triazol-4-yl)-8-azabicyclo[3.2.1]octane-8-yl]-1-(thiophen-2-yl)propyl]-2-(1H-tetrazol-5-yl)acetamide]	14.9	–	–
Cc1ccc([C@H](CCN2C3CCC2CC(n2c(C)nnc2C(C)C)C3)NC(=O)Cc2nnn[nH]2)s1 (stereo partly drawn) [Compound 159, N-[(1S)-3-[exo-3-(3-isopropyl-5-methyl-4H-1,2,4-triazol-4-yl)-8-azabicyclo[3.2.1]octane-8-yl]-1-(5-methylthiophen-2-yl)propyl]-2-(1H-tetrazol-5-yl)acetamide]	8.76	comparable to the positive control compounds	–
COc1ccc([C@H](CCN2C3CCC2CC(n2c(C)nnc2C(C)C)C3)NC(=O)Cc2nnn[nH]2)s1 (stereo partly drawn) [Compound 160, N-[(1S)-3-[exo-3-(3-isopropyl-5-methyl-4H-1,2,4-triazol-4-yl)-8-azabicyclo[3.2.1]octane-8-yl]-1-(5-methoxythiophen-2-yl)propyl]-2-(1H-tetrazol-5-yl)acetamide]	–	better than the positive control compounds	1.34
Cc1nnc(C(C)C)n1C1CC2CCC(C1)N2CC[C@H](NC(=O)Cc1nnn[nH]1)c1ccc(C#N)s1 (stereo partly drawn) [Compound 161, N-[(1S)-3-[exo-3-(3-isopropyl-5-methyl-4H-1,2,4-triazol-4-yl)-8-azabicyclo[3.2.1]octane-8-yl]-1-(5-cyanothiophen-2-yl)propyl]-2-(1H-tetrazol-5-yl)acetamide]	–	comparable to the positive control compounds	8.36
Cc1nnc(C(C)C)n1C1CC2CCC(C1)N2CC[C@H](NC(=O)Cc1nnn[nH]1)c1ccc(Cl)s1 (stereo partly drawn) [Compound 162, N-[(1S)-3-[exo-3-(3-isopropyl-5-methyl-4H-1,2,4-triazol-4-yl)-8-azabicyclo[3.2.1]octane-8-yl]-1-(5-chlorothiophen-2-yl)propyl]-2-(1H-tetrazol-5-yl)acetamide]	1.85	better than the positive control compounds	–
Cc1nnc(C(C)C)n1C1CC2CCC(C1)N2CC[C@H](NC(=O)Cc1nnn[nH]1)c1ccc(F)s1 (stereo partly drawn) [Compound 163, N-[(1S)-3-[exo-3-(3-isopropyl-5-methyl-4H-1,2,4-triazol-4-yl)-8-azabicyclo[3.2.1]octane-8-yl]-1-(5-fluorothiophen-2-yl)propyl]-2-(1H-tetrazol-5-yl)acetamide]	13.3	–	–
COc1ccc([C@H](CCN2C3CCC2CC(n2c(C)nnc2C(C)C)C3)NC(=O)CC#N)s1 (stereo partly drawn) [Compound 166, N-[(1S)-3-[exo-3-(3-isopropyl-5-methyl-4H-1,2,4-triazol-4-yl)-8-azabicyclo[3.2.1]octane-8-yl]-1-(5-methoxythiophen-2-yl)propyl]-2-cyanoacetamide]	–	better than the positive control compounds	6.54
Cc1nnc(C(C)C)n1C1CC2CCC(C1)N2CC[C@H](NC(=O)CC#N)c1ccc(C#N)s1 (stereo partly drawn) [Compound 167, N-[(1S)-3-[exo-3-(3-isopropyl-5-methyl-4H-1,2,4-triazol-4-yl)-8-azabicyclo[3.2.1]octane-8-yl]-1-(5-cyanothiophen-2-yl)propyl]-2-cyanoacetamide]	–	–	7.98
Cc1nnc(C(C)C)n1C1CC2CCC(C1)N2CC[C@H](NC(=O)Cn1cnnn1)c1cccs1 (stereo partly drawn) [Compound 172, N-[(1S)-3-[exo-3-(3-isopropyl-5-methyl-4H-1,2,4-triazol-4-yl)-8-azabicyclo[3.2.1]octane-8-yl]-1-(thiophen-2-yl)propyl]-2-(1H-tetrazol-1-yl)acetamide]	9.38	better than the positive control compounds	–
CC(=O)N[C@@H](CCN1C2CCC1CC(n1c(C)nc3c1CCN(C(=O)C(C)C)C3)C2)c1cccc(F)c1 (stereo partly shown) [PF-232798, reference compound]	8.29	–	–
